Measurements reported in patent US10149887B2, “Peptides and peptidomimetics in combination with t cell activating and/or checkpoint inhibiting agents for cancer treatment” (CanBas Co., Ltd., priority 2015, dated 2018).
Where two headings read alike, the source gives them in different places. Square brackets hold non-standard residues; d marks the D form. Peptide text beside a SMILES is read from it. dPhe(F5) = N[C@H](Cc1c(F)c(F)c(F)c(F)c1F)C(=O)O; dCha = N[C@H](CC1CCCCC1)C(=O)O

Assays:
Jurkat cells [1] = test: Side effect of peptide used alone: Jurkat cell cycle disturbance (flow cytometry); assay type: cell-based; conditions: dose that produced Jurkat cell cycle disturbance, peptide alone
Method in brief: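 Cell-cycle profiles were obtained by flow cytometry after propidium iodide staining in Krishan's solution for 1 hr at 4 °C. The value is the peptide dose given alone that disturbed the cell cycle, seen as significant SubG1 (dead) cells or unusually variable DNA content.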

PKA = test: In vitro kinase inhibition, PepTag Non-Radioactive Protein Kinase Assay; assay type: biochemical
Jurkat cells [2] = test: M phase checkpoint abrogation / non specific toxicity, colchicine treated Jurkat cells; assay type: cell-based; conditions: dose with 5 μg/ml colchicine that produced Jurkat cell cycle disturbance, 24 hours
CHK2 = CHK2 (Homo sapiens, UniProt O96017); test: In vitro kinase inhibition, PepTag Non-Radioactive Protein Kinase Assay; assay type: biochemical; conditions: purified CHK2 kinase
Description: Since two kinases, Chk1 and Chk2, are important for G2 checkpoint mechanism, kinase inhibition analysis of both enzymes was performed. In vitro kinase inhibition analysis was performed using “PepTag® Non-Radioactive Protein Kinase Assays”, Promega, according to company's protocol, except purified CHK2 kinase was used instead of PKC.

Jurkat cells [3] = test: G2 checkpoint abrogation, flow cytometry of bleomycin treated Jurkat cells; assay type: cell-based, human; conditions: dose with 40 μg/ml bleomycine giving detectable G2 checkpoint abrogation, 24 hours
Description: Cell-cycle analysis The cell cycle status of the cells treated with bleomycin or adriamcin were analyzed by flow cytometry as described by Kawabe (1997) Nature 385:454-458. In brief, two million cells were re-suspended and incubated in 200 μl Krishan's solution (0.1% Sodium citrate, 50 μg/ml PI, 20 μg/ml RNase A and 0.5% NP-40) for 1 hr at 4° C. and analyzed by a flow cytometry, FACScan™ (Beckton Dickinson, Mountain View, Calif.) with the program CELLQuest™ (Beckton Dickinson).
Flow cytometry analysis of G2 checkpoint abrogation was performed using human leukemia derived Jurkat cell line. In brief, cultured cells were treated with various doses of peptide/peptidomimetic and 40 μg/ml bleomycine for 24 hr. The DNA of the cells was stained with propidium iodide and analyzed by flow cytometry.
The “G2 abrogating dose” indicates the peptide/peptidomimetic dose with 40 μg/ml bleomycine that produced detectable G2 checkpoint abrogation activity following treatment for 24 hours.
The G2 checkpoint abrogating activity of various arginine rich sequences at different doses on cells treated with bleomycine was studied. Briefly, peptides were added to culture medium of Jurkat cells with bleomycin (40 μg/ml) at 0.2 μg/ml, 0.39 μg/ml, 0.78 μg/ml, 1.56 μg/ml, 3.125 μg/ml, 6.25 μg/ml, 12.5 μg/ml, 25 μg/ml and 50 μg/ml. Cells were subsequently harvested after 24 hours, stained with Krishan's solution, and analyzed with flow cytometry as previously described.

CT26WT = CT26WT s.c. syngeneic tumor model in Balb/c mice (Example 9); assay type: in vivo, mouse; conditions: CDDP 5 mg/kg, CBP501 7.5 mg/kg, anti-mPD1 200 ug, 3 dosing cycles
Description: Relative sizes of tumors were plotted versus the number of days after initiation of the treatment.
All animal studies were conducted according to the protocols approved by the institutional animal care committee of CanBas Co. Ltd. Six-week-old female Balb/c mice (Charles River Laboratories Japan Inc.) were inoculated subcutaneously in the flank with a suspension of CT26WT (5×10^5 cells). […] Tumor volumes, measured thrice weekly with a pair of calipers, were calculated with the following formula: volume (mm^3)=[width (mm)]^2×length (mm)/2. Growth curves after treatment were generated by plotting the mean+/−SE of tumor sizes.
Treatments were initiated when tumor size were reached (˜100 mm^3).

MIAPaCa2 = conditions: three hours exposure
Description: The medium was changed and incubated an additional 24, 48 or 72 hour. Following incubation, 20 μl of alamarBlue 90% reagent was added to each well for another 6 hours for detection of cell viability by fluorescent intensity. Fluorescent intensity was measured using a Spectrafluor Plus plate reader with exitation 530 nm and emission 590 nm. The IC50 was calculated (Table 6).

Chain of CHK2 (O96017 whole entry): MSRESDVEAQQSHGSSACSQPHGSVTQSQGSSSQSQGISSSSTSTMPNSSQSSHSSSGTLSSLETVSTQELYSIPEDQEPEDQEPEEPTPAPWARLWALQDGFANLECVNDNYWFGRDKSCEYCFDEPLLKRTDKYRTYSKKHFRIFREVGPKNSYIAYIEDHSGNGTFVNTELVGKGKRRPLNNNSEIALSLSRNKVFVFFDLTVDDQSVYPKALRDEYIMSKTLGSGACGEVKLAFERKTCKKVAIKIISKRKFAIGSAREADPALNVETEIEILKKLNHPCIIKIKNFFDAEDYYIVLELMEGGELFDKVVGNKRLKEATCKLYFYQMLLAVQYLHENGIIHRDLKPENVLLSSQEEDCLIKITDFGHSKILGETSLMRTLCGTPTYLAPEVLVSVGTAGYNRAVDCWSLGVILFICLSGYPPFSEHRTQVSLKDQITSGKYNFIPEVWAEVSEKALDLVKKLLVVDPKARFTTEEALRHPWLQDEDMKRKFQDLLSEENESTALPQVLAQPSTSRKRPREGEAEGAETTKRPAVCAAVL

Compound: N=C(N)NCCC[C@@H](NC(=O)[C@@H](CCCCN)NC(=O)[C@@H](CCCCN)NC(=O)[C@@H](CCCNC(=N)N)NC(=O)[C@@H](CCCNC(=N)N)NC(=O)[C@@H](CCC(N)=O)NC(=O)[C@@H](CCCNC(=N)N)NC(=O)[C@@H](CCCNC(=N)N)NC(=O)[C@@H](CCCNC(=N)N)NC(=O)[C@@H](CC1CCCCC1)NC(=O)[C@@H](Cc1c(F)c(F)c(F)c(F)c1F)NC(=O)[C@@H](CCCNC(=N)N)NC(=O)[C@@H](CO)NC(=O)CNC(=O)[C@@H](CO)NC(=O)[C@@H](Cc1ccc(O)cc1)NC(=O)[C@H](N)Cc1ccc(O)cc1)C(=O)NCC(=O)N[C@H](Cc1ccc(O)cc1)C(=O)O [CBP450, (d-Tyr)(d-Tyr)(d-Ser)(1-Gly)(d-Ser)(d-Arg)(d-Phe-2,3,4,5,6-F)(d-Cha)(d-Arg)(d-Arg)(d-Arg)(d-Gln)(d-Arg)(d-Arg)(d-Lys)(d-Lys)(d-Arg)(1-Gly)(d-Tyr)] (H-[dY][dY][dS]G[dS][dR][dPhe(F5)][dCha][dR][dR][dR][dQ][dR][dR][dK][dK][dR]G[dY]-OH; N-terminus and C-terminus assumed)
- Appearance of side effect when used alone (Jurkat cells [1]): >6.25 µM
- IC50 (PKA): > 400 µM
- Appearance of side effect when used with Colchicine (Jurkat cells [2]): >6.25 µM
- IC50 (CHK2): 10 µM
- G2 abrogating dose (Jurkat cells [3]): ≥0.78 µM

Compound: N.N.[Cl][Pt][Cl] [cisplatin, cis-diamminodichloroplatinum, reference compound]
- Reduction of tumor growth as compared to vehicle-treated mice (CT26WT): 52.7%
- IC50 (MIAPaCa2; read-out: IC50 24 hr, additional 24 hour): 16 µM
- IC50 (MIAPaCa2; read-out: IC50 48 hr, additional 48 hour): 31 µM
- IC50 (MIAPaCa2; read-out: IC50 72 hr, additional 72 hour): 46 µM
